3 compounds from publication doi:10.1101/854513v2 (biorxiv, 2020) can be followed below.

Residue numbers refer to the chain shown, from its start. Read-outs that look alike come from different tables or passages of the source.

The target of experiment [1] is T1, hM3Dq (Homo sapiens, UniProt P20309, A239G/Y149C). Description: cell-based.
The next experiment deals with hM3 (Homo sapiens, UniProt P20309). Description: biochemical. It is filed as binding.
Experiment [2] deals with T2, hM4Di (Homo sapiens, UniProt P08173, A203G/Y113C).
T2 sequence (P08173 1-479 Y113C/A203G): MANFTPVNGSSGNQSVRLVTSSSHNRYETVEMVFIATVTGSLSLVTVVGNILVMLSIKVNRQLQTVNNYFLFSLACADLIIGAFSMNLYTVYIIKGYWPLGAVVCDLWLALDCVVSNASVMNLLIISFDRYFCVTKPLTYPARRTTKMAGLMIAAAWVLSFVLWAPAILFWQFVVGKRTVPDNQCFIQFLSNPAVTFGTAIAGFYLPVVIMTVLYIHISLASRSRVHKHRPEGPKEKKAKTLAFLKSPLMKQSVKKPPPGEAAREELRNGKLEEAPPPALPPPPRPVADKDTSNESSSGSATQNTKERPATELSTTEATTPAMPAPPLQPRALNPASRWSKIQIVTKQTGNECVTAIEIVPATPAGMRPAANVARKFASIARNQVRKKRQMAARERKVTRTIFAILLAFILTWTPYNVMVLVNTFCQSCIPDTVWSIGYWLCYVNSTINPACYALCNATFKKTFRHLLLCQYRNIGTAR
The experiment can be described thus: BRET G protein dissociation. It is filed as cell-based. (Bioluminescence resonance energy transfer reports proximity on the nanometre scale.)

The target of experiment [3] is T1, hM3Dq. Description: biochemical. It is filed as binding.
Experiment [4] addresses T2, hM4Di. The experiment can be described thus: [3H]QNB competition binding.
The target in the next experiment is T3, hM4 (Homo sapiens, UniProt P08173).
T3 sequence (P08173 1-479): T2 sequence (P08173 1-479 Y113C/A203G) with C113Y, G203A
Description: [3H]QNB competition binding.

The target of a further experiment is T4, hM5 (Homo sapiens, UniProt P08912).
T4 sequence (P08912 1-532): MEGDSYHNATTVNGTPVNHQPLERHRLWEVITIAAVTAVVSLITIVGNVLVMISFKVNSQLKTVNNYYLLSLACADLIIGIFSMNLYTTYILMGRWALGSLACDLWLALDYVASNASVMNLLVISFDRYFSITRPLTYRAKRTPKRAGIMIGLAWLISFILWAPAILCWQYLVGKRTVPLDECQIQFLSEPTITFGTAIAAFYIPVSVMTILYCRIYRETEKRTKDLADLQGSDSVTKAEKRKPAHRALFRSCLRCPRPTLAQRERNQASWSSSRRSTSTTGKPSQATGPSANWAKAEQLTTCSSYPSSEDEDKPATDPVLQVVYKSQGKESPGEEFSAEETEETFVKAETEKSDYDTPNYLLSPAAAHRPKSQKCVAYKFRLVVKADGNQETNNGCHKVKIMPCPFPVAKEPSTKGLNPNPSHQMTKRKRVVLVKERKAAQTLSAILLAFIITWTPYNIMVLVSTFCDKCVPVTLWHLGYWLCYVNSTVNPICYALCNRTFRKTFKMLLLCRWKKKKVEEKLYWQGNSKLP
The experiment can be described thus: radioligand competition binding.

In another experiment the target is T5, hM1 (Homo sapiens, UniProt P11229).
T5 sequence (P11229 1-460): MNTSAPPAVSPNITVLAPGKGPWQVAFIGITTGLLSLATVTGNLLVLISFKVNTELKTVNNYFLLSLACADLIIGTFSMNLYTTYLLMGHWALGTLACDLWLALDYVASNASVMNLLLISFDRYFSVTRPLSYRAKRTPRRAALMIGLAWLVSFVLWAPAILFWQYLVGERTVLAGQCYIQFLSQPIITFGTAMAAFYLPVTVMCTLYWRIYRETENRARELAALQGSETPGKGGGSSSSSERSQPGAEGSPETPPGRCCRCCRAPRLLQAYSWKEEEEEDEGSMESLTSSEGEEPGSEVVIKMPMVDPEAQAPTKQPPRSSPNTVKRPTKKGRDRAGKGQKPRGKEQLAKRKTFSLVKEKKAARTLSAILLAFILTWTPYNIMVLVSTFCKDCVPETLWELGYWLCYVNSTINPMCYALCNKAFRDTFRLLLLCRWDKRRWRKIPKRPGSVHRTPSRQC
The experiment can be described thus: radioligand competition binding. (In a radioligand displacement assay an active substance lowers the binding of a labelled ligand.)

T1 sequence (P20309 whole entry Y149C/A239G): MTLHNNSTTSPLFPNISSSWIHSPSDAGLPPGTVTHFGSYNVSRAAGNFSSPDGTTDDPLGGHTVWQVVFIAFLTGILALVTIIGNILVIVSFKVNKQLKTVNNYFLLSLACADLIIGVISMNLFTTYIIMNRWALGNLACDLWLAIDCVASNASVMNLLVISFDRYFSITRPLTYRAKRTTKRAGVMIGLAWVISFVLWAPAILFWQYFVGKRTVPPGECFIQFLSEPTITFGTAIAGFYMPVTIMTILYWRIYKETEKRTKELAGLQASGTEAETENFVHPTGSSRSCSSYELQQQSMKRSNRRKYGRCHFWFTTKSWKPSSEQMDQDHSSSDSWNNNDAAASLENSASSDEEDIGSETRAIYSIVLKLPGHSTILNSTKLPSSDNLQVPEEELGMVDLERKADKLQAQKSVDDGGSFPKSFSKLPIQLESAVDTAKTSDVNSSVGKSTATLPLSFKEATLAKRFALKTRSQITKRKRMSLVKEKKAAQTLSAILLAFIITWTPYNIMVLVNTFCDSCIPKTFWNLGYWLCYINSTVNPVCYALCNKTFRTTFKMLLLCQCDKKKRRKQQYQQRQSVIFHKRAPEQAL
Sequence of hM3 (P20309 whole entry): as the sequence (P20309 whole entry Y149C/A239G) above, with C149Y, G239A counted along it

The term EC50 denotes the midpoint of the concentration-response curve. Read a low EC50 as higher potency in that assay. Broadly, the Ki is a dissociation constant, usually derived from enzyme kinetics or from competition with a known ligand. A high value points to a looser hold on the target. In the case of `c1ccc2c(c1)N=C(N1CCNCC1)c1ccccc1N2` [C21], the EC50 on hM3Dq [1] amounted to 5.2 nM; on hM4Di [2] it was 2.6 nM. In addition, the Ki on hM3 (HEK293T, [3H]QNB […]) is 270 nM; at hM3Dq [3], 850 nM.
Take `C[N+]1([O-])CCN(C2=Nc3cc(Cl)ccc3Nc3ccccc32)CC1` [CNO]: the Ki at hM4Di [4] stood at 360 nM; at hM3, 2600 nM; on hM3Dq [3] it was 680 nM; on hM4, 3700 nM. Besides, the EC50 on hM3Dq [1] turned out to be 15 nM; on hM4Di [2], 7.3 nM.
For the compound `CN1CCN(C2=Nc3ccccc3Nc3ccccc32)CC1` [DCZ, 11-(4-methyl-1-piperazinyl)-5H-dibenzo(b,e)(1,4)diazepine], the Ki on hM4Di [4] turned out to be 4.2 nM; on hM3, 230 nM; at hM5, 55 nM; on hM1 it was 83 nM; at hM3Dq [3], 6.3 nM; on hM4, 210 nM. In addition, the 50% effective concentration (EC50) was determined as 0.13 nM at hM3Dq [1] and 0.081 nM at hM4Di [2].
